Test results reported in PubChem BioAssay AID248 (DTP/NCI, 2004).
Inconclusive results and toxic doses are left out. Rule as the data show it: active = T/C of 150% or more; inactive = T/C below 125%.

System: L1210 leukemia ip in BDF1 mice, survival T/C
Test: NCI In Vivo Anticancer Drug Screen. Data for tumor model L1210 Leukemia (intraperitoneal) in B6D2F1 (BDF1) mice
Settings: endpoint: mean survival time, higher = longer survival
In short: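 Tumor cells were implanted, animals were treated, and survival was followed. The result divides the treated measurement by the vehicle-control measurement.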

[1] = dose: 100.0 mg/kg/injection, schedule: Q01DX009 (ip), vehicle: Klucel (hydroxypropylcellulose) (HPC)
[2] = dose: 200.0 mg/kg/injection, schedule: Q01DX009 (ip), vehicle: Klucel (hydroxypropylcellulose) (HPC)
[3] = dose: 100.0 mg/kg/injection, schedule: Q01DX009 (ip), vehicle: saline with Tween-80
[4] = dose: 400.0 mg/kg/injection, schedule: Q01DX009 (ip), vehicle: saline with Tween-80
[5] = dose: 100.0 mg/kg/injection, schedule: Q01DX009 (ip), vehicle: saline
[6] = dose: 200.0 mg/kg/injection, schedule: Q01DX009 (ip), vehicle: saline
[7] = dose: 5.0 mg/kg/injection, schedule: Q01DX001 (ip), vehicle: saline
[8] = dose: 10.0 mg/kg/injection, schedule: Q01DX001 (ip), vehicle: saline
[9] = dose: 100.0 mg/kg/injection, schedule: Q04DX003 (ip), vehicle: Klucel (hydroxypropylcellulose) (HPC)
[10] = dose: 200.0 mg/kg/injection, schedule: Q04DX003 (ip), vehicle: Klucel (hydroxypropylcellulose) (HPC)
[11] = dose: 400.0 mg/kg/injection, schedule: Q01DX009 (ip), vehicle: Klucel (hydroxypropylcellulose) (HPC)
[12] = dose: 400.0 mg/kg/injection, schedule: Q04DX003 (ip), vehicle: Klucel (hydroxypropylcellulose) (HPC)
[13] = dose: 200.0 mg/kg/injection, schedule: Q01DX009 (ip), vehicle: saline with Tween-80
[14] = dose: 100.0 mg/kg/injection, schedule: Q01DX001 (ip), vehicle: saline
[15] = dose: 200.0 mg/kg/injection, schedule: Q01DX001 (ip), vehicle: saline
[16] = dose: 400.0 mg/kg/injection, schedule: Q01DX001 (ip), vehicle: saline
[17] = dose: 100.0 mg/kg/injection, schedule: Q04DX003 (ip), vehicle: saline
[18] = dose: 100.0 mg/kg/injection, schedule: Q04DX002 (ip), vehicle: saline
[19] = dose: 200.0 mg/kg/injection, schedule: Q04DX002 (ip), vehicle: saline

Measured: T/C

Cc1cc(C)c(NC(=O)Nc2ccccc2F)cc1C
inactive: dose: 25.0 mg/kg/injection, schedule: Q01DX009 (ip), vehicle: Klucel (hydroxypropylcellulose) (HPC) 98 % of control | dose: 50.0 mg/kg/injection, schedule: Q01DX009 (ip), vehicle: Klucel (hydroxypropylcellulose) (HPC) 93 % of control | [1] 96 % of control | dose: 100.0 mg/kg/injection, schedule: Q04DX002 (ip), vehicle: Klucel (hydroxypropylcellulose) (HPC) 102 % of control | [2] 89 % of control | dose: 200.0 mg/kg/injection, schedule: Q04DX002 (ip), vehicle: Klucel (hydroxypropylcellulose) (HPC) 91 % of control | dose: 400.0 mg/kg/injection, schedule: Q04DX002 (ip), vehicle: Klucel (hydroxypropylcellulose) (HPC) 115 % of control

C=CCC/C(=N\NC(N)=O)c1ccccc1
inactive: dose: 75.0 mg/kg/injection, schedule: Q01DX001 (ip), vehicle: acetone 99 % of control | dose: 150.0 mg/kg/injection, schedule: Q01DX001 (ip), vehicle: acetone 91 % of control | dose: 300.0 mg/kg/injection, schedule: Q01DX001 (ip), vehicle: acetone 110 % of control

CC1=Cc2ccc(C)cc2C(=O)C1=O
inactive: dose: 6.25 mg/kg/injection, schedule: Q04DX003 (ip), vehicle: saline with Tween-80 94 % of control

CCCCNC(=O)Nc1ccc(C)cc1
inactive: dose: 100.0 mg/kg/injection, schedule: Q01DX001 (ip), vehicle: carboxymethylcellulose (CMC) 100 % of control | dose: 200.0 mg/kg/injection, schedule: Q01DX001 (ip), vehicle: carboxymethylcellulose (CMC) 103 % of control | dose: 400.0 mg/kg/injection, schedule: Q01DX001 (ip), vehicle: carboxymethylcellulose (CMC) 97 % of control

O=C(NCc1cnccn1)Oc1ccc([N+](=O)[O-])cc1
inactive: dose: 50.0 mg/kg/injection, schedule: Q01DX009 (ip), vehicle: saline with Tween-80 93 % of control | [3] 103 % of control | [4] 98 % of control

CC(=O)OCCC(CCOC(C)=O)=C1N=C(c2ccccc2)OC1=O
inactive: [5] 97 % of control | dose: 100.0 mg/kg/injection, schedule: Q04DX003 (ip), vehicle: other 101 % of control | [6] 105 % of control | dose: 200.0 mg/kg/injection, schedule: Q04DX003 (ip), vehicle: other 104 % of control | dose: 400.0 mg/kg/injection, schedule: Q01DX009 (ip), vehicle: saline 92 % of control | dose: 400.0 mg/kg/injection, schedule: Q04DX003 (ip), vehicle: other 101 % of control

CC(CCCN(CCCl)CCCl)Nc1ccnc2cc(Cl)ccc12 (stereo not given)
inactive: [7] 119 % of control | [8] 105 % of control

CS(=O)(=O)c1ccc(F)c([N+](=O)[O-])c1
inactive: dose: 25.0 mg/kg/injection, schedule: Q04DX003 (ip), vehicle: Klucel (hydroxypropylcellulose) (HPC) 92 % of control | dose: 50.0 mg/kg/injection, schedule: Q04DX003 (ip), vehicle: Klucel (hydroxypropylcellulose) (HPC) 92 % of control | [9] 95 % of control

O=C1OC(c2ccccc2)=N/C1=C/c1cccs1
inactive: [1] 104 % of control | [9] 98 % of control | [2] 97 % of control | [10] 104 % of control | [11] 101 % of control | [12] 106 % of control

Nc1ccc(CCCC(=O)NCc2cccnc2)cc1
inactive: [3] 105 % of control | [13] 94 % of control | [4] 96 % of control

Nc1c(Br)cc(Br)cc1Br
inactive: [1] 96 % of control | [9] 106 % of control | [2] 96 % of control | [10] 92 % of control | [11] 98 % of control | [12] 97 % of control

C/C(=C\CN1C(=O)CN(C)C1=O)CCC1OC1(C)C (stereo not given)
inactive: [14] 115 % of control | dose: 100.0 mg/kg/injection, schedule: Q04DX003 (ip), vehicle: water 100 % of control | [15] 111 % of control | dose: 200.0 mg/kg/injection, schedule: Q04DX003 (ip), vehicle: water 98 % of control | [16] 114 % of control | dose: 400.0 mg/kg/injection, schedule: Q04DX003 (ip), vehicle: water 104 % of control

O=C(c1ccc(O)cc1O)c1cccc2ccccc12
inactive: [1] 95 % of control | [9] 93 % of control | [2] 97 % of control | [10] 95 % of control | [11] 99 % of control | [12] 93 % of control

CC[N+](C)(CC)CCOC(=O)c1ccccc1Oc1ccc(C)cc1
inactive: [17] 96 % of control

O=C(NCCCl)NC1c2ccccc2CCc2ccccc21
inactive: [1] 94 % of control | [9] 106 % of control | [2] 88 % of control | [10] 105 % of control | [11] 98 % of control | [12] 90 % of control

c1ccc(CN(CCCOc2ccccc2)Cc2ccccc2)cc1
inactive: dose: 100.0 mg/kg/injection, schedule: Q04DX003 (ip), vehicle: saline with Tween-80 103 % of control | dose: 200.0 mg/kg/injection, schedule: Q04DX003 (ip), vehicle: saline with Tween-80 103 % of control | dose: 400.0 mg/kg/injection, schedule: Q04DX003 (ip), vehicle: saline with Tween-80 97 % of control

O=C(NC(C(O)CO)C(OC(=O)c1ccccc1)C(O)CO)c1ccccc1 (stereo not given)
inactive: [3] 105 % of control | [13] 94 % of control | [4] 94 % of control

CCCOc1ccc(Nc2c3ccccc3nc3ccccc23)cc1
inactive: [9] 102 % of control | [10] 96 % of control

NCCSC1CCCCC1
inactive: [18] 110 % of control | [19] 94 % of control

CCCCCCCCCCCCSC1=CC(=O)C=CC1=O
inactive: [7] 101 % of control | [8] 108 % of control | dose: 20.0 mg/kg/injection, schedule: Q01DX001 (ip), vehicle: saline 97 % of control | dose: 40.0 mg/kg/injection, schedule: Q01DX001 (ip), vehicle: saline 112 % of control | dose: 80.0 mg/kg/injection, schedule: Q01DX001 (ip), vehicle: saline 112 % of control

CCNCCCNCC
inactive: dose: 75.0 mg/kg/injection, schedule: Q01DX001 (ip), vehicle: saline 100 % of control | dose: 150.0 mg/kg/injection, schedule: Q01DX001 (ip), vehicle: saline 93 % of control

Cc1cccc(NC(N)=O)c1
inactive: dose: 50.0 mg/kg/injection, schedule: Q01DX009 (ip), vehicle: saline 96 % of control | [5] 97 % of control | [17] 95 % of control | [6] 94 % of control | dose: 200.0 mg/kg/injection, schedule: Q04DX003 (ip), vehicle: saline 97 % of control | dose: 400.0 mg/kg/injection, schedule: Q04DX003 (ip), vehicle: saline 94 % of control

NC(=O)NN=C(CCl)CCl
inactive: [18] 100 % of control | [19] 91 % of control

O=C(N/N=C/C=C/c1ccccc1)c1ccccc1O
inactive: [1] 92 % of control | [2] 89 % of control | [11] 95 % of control

Cc1ccc(S(=O)(=O)Nc2ccccc2-c2nc3ccc([N+](=O)[O-])cc3c(=O)o2)cc1
inactive: [3] 104 % of control | [13] 96 % of control

Nc1ncnc2c1ncn2C1OC(CO)C(NC(=O)C(CCCCNC(=O)OCc2ccccc2)NC(=O)OCc2ccccc2)C1O (stereo not given)
inactive: [14] 102 % of control | [15] 100 % of control | [16] 100 % of control
